Structures can show the parent of a compound that is named as a salt.
Assays:
[1] = pH-dependent solubility of vardenafil hydrochloride trihydrate; assay type: physicochemical
From the text: This great pH-dependence represents a hindrance in particular to the development of pharmaceutical dosage forms with controlled release of active ingredient for oral use, because the medicinal form is exposed on passage through the gastrointestinal (GI) tract to media with pH values varying greatly from about pH 1 to pH 7.5. In order to achieve a sufficient bioavailability from a slow-release medicinal form, a substance must be absorbed if possible over the entire gastrointestinal tract. […] A slowing of the release of active ingredient usually leads in the case of substances subject to a very large first-pass effect to complete loss of the oral bioavailability, because the slow rise in level of the active ingredient means that the concentrations in the portal vein blood remain so low that the capacity of the metabolizing liver enzymes is sufficient for complete degradation.

[2] = cited from earlier work

solubility ([1]; aqueous buffer, in 0.15 M phosphate buffer of pH 4) [µg/mL] | solubility ([1]; aqueous buffer, in 0.15 M phosphate buffer of pH 7) [µg/mL] | solubility ([1]; simulated gastric fluid, in 0.1 N hydrochloric acid) [µg/mL] | Structure (SMILES) | absolute oral bioavailability [2] [%]
870 | 30 | 65000 | CCCc1nc(C)c2c(=O)[nH]c(-c3cc(S(=O)(=O)N4CCN(CC)CC4)ccc3OCC)nn12 [vardenafil hydrochloride trihydrate] | –
– | – | – | CCCc1nc(C)c2c(=O)[nH]c(-c3cc(S(=O)(=O)N4CCN(CC)CC4)ccc3OCC)nn12 [vardenafil, {2-ethoxy-5-[(4-ethyl-1-piperazinyl)sulphonyl]phenyl}-5-methyl-7-propylimidazo[5,1-f]triazin-4(3H)-one] | 15

Source: patent US20080187588A1, “Formulations With Controlled Release Of Active Ingredient” (Bayer HealthCare AG, priority 2004, published 2008)
